# Measured values reported in patent US20230023026A1, “METHODS FOR TREATMENT OF DAMAGED BILIARY DUCT” (Mor Research Applications Ltd., priority 2020, published 2023).
# Entries after “also recorded” stand apart in the source; their conditions may differ.
# Tests used:
# Mdr2−/− mice = test: In vivo treatment of Mdr2−/− mice with L-NAC in drinking water, liver histology (H&E, Sirius Red); design: species or system mouse; settings: 4-month old Mdr2−/− mice, 30 gr/L L-NAC in drinking water for 3 weeks
# Source text: The homozygote, multidrug resistance protein 2 knockout mouse (Mdr2KO or Mdr2^−/−, also known as Abcb4^−/−) lacks the protein MDR2, a canalicular phospholipid flippase that causes a complete absence of phosphatidylcholine in bile. Mdr2^−/− mice are a well-established model for biliary ducts diseases resulting from, or associated with, highly toxic bile. Multidrug resistance P-glycoproteins, Mdr2 in mouse and MDR3 in human, are choline-containing phospholipid phosphatidylcholine (PC) transporters. In the liver, Mdr2/MDR3 are involved in the translocation of PC from the inner leaflet to the outer leaflet of the canalicular membrane of hepatocytes for direct extraction by bile acids. Bile acids and PC are essential components in the bile that form bile acid containing micelles to thereby reduce the toxic detergent activity of bile acid for hepatocytes and cholangiocytes and to establish physiological bile flow. Mdr2 knockout mouse successively develops liver inflammation, hepatic fibrosis, and hepatocellular carcinoma (HCC) at late ages. The pathogenesis in Mdr2^−/− mice is commonly considered to be caused by increased levels of free toxic bile acids in the biliary canaliculus, which damages hepatocytes and cholangiocytes and provokes liver inflammation. This cholangiopathy is similar to human PSC. The wild type and Mdr2 knockout mice used in embodiments described herein are male and female mice of FVB genetic background (FVB/N and FVB/Mdr2^−/− mice, respectively). All mice were maintained under specific pathogen-free conditions with a 12-hour-light-dark cycle and permitted ad libitum consumption of water and a standard chow. FVB/Mdr2^−/− mice are reproducible model of spontaneously progressive chronic biliary liver disease associated with fibrosis, with histological lesions closely resembling human PSC. Though the Mdr2^−/− mouse is well-established for the investigation of PSC, little is known about EHBD injury in this model. 1. […] The liver repair effect in Mdr2^−/− mice treated with L-NAC was assessed. […]
# [1] = test system: EHBD explants from Mdr2−/− mice; test: Ex-vivo bile duct explant culture of Mdr2−/− EHBDs treated with L-NAC (H&E, K19/ZO-1 immunostaining, DAPI); format: cell-based, mouse
# Protocol: Intact extrahepatic bile ducts (EHBDs) from 2-week (N≥12) and 16-week (N≥5) old mice were dissected, placed in ice-cold V-7 cold preservation buffer (Vitron) followed by incubation in cholangiocyte medium (also termed herein “BEC medium”), according to a modification of the protocol described by Karjoo and Wells (Isolation of neonatal extrahepatic cholangiocytes. J. Vis. Exp. 2014). Ducts were placed on roller inserts, treated with N-Acetyl-L-cysteine (L-NAC) and other compounds as noted below, and cultured in a high oxygenation Vitron Dynamic Organ Culture Incubator at 37° C., in 95% O2 and 5% CO2, for 1-3 days. In the incubator (designed to optimally incubate tissue slices), the explants rotated and were exposed to alternating periods in medium and 95% oxygen/5% CO2. Thin slices of tissue remained viable without visible damage or evidence of necrosis or apoptosis for at least 3 days.
# 1. Histological H&E staining of cells of ducts tissue was performed according to standard staining protocol, using two dyes: the basic dye haemotoxylin and the acidic dye eosin. Eosin reacted with cationic or basic components (also termed “acidophilic”) and stained red or pink acidophilic structures (e.g., cytoplasmic proteins, intracellular membranes, and extracellular fibers). Haematoxylin, reacted with anionic or acidic components (also termed “basophilic”) in cells and, when used in combination with aluminum ions (Al^3+), stained purplish blue basophilic structures (e.g., the nucleic acids in the nucleus and parts of the cytoplasm that contain RNA (e.g., ribosomes and the rough endoplasmic reticulum)). EHBDs were fixed in 4% paraformaldehyde (PFA) and embedded in paraffin, then sections (4-μm thick) were cut and stained with H&E.
# 3. Immunostaining or immunohistochemistry (IHC), which combines anatomical, immunological and biochemical techniques, was conducted in order to image discrete components in EHBDs tissues by using appropriately labeled antibodies that bind specifically to their target antigens in situ Immunohistochemistry made it possible to visualize the high-resolution distribution and localization of specific cellular components within cholangiocytes and within their proper histological context Immunostaining methodology included two main steps: sample preparation and sample staining. In the preparation step, ducts were fixed at 4% PFA for the preservation of cell morphology and tissue architecture. Thin sections of tissues (4-μm thick) attached to individual glass slides where then immunostained as described e.g., in Dipaola et al., 2013 (Hepatology 58:1486-1496, 2013), using antibodies against the cholangiocyte marker keratin 19 (K19, 1:10, Developmental Studies Hybridoma Bank, TROMAIII) and ZO-1 tight junction protein (anti-ZO1 antibody ab96587; Abcam).
# 4. […]
smiles,measurement,setting,value
"CC(=O)N[C@@H](CS)C(=O)O [L-NAC, N-acetyl-L-cysteine]",inflammatory cell infiltration around the portal areas (H&E),Mdr2−/− mice,reduction in inflammatory cell infiltration
same,portal fibrosis in liver (H&E),Mdr2−/− mice,reduced portal fibrosis
same,liver fibrosis (Sirius Red staining),Mdr2−/− mice; vs untreated mouse,reduction in liver fibrosis
same,"histological damage, including coarse chromatin and nuclear crowding (H&E)","[1]; EHBDs from 2-week old Mdr2−/− mice, 5 μM L-NAC in fresh BEC medium, 24 hours",improved
same,expression of the tight junction protein ZO-1 (immunostaining),"[1]; EHBDs from 2-week old Mdr2−/− mice, 5 μM L-NAC, 24 hours",restored apical tight junction expression
same,restoration of the apical tight junction ZO-1 (immunostaining),"[1]; EHBDs from 16-week old Mdr2−/− mice, 5 μM L-NAC, 24 hours",not seen; also recorded: poor ZO-1 restoration
same,duct architecture / morphology (H&E),"[1]; Mdr2−/− EHBD explants, L-NAC and fresh BEC media for 24 hours",improved duct architecture with a more normal appearing columnar epithelium; also recorded: substantial morphological recovery
